Test results reported in publication PMC10009755, “Discovery and Characterization of BAY-805, a Potent and Selective Inhibitor of Ubiquitin-Specific Protease USP21” (Journal of Medicinal Chemistry, 2023).
In brackets after ≈: the same amount, converted by molar mass. Where two headings read alike, the source gives them in different places.

Legend:
[1] = target: T1, C-terminal HiBiT-tagged USP21 (Homo sapiens, UniProt Q9UK80); experiment: USP21 HiBiT CETSA; assay type: cell-based; conditions: 49 °C, HEK293T cells
T1 construct: expressed in transfected cells; host or cells: HEK293T
T1 sequence (Q9UK80 1-565): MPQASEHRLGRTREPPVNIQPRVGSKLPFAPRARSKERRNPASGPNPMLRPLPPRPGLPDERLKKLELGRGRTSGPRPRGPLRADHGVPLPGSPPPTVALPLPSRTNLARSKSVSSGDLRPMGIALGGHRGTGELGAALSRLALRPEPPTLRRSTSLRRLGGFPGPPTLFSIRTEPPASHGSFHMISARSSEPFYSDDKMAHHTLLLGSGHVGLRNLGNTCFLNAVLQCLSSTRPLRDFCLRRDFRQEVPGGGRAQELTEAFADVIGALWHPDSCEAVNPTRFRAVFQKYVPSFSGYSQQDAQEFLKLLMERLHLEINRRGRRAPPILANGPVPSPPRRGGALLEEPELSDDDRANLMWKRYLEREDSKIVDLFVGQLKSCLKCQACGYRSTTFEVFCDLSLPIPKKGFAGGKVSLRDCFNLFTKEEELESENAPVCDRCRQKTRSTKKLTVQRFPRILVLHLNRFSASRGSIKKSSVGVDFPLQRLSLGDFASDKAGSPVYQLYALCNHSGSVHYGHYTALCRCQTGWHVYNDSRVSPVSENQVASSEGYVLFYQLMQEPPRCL
Procedure: In particular, we utilized a HiBiT CETSA assay format[42],[43] conducted in intact HEK293T cells. Cells were transfected with USP21 fused to a small proluminescent NanoLuc HiBiT tag, which, when complemented with the Large BiT NanoLuc fragment, produces a quantifiable luminescence signal.
HEK293T cells were seeded in a six-well plate at 8 × 10^5 cells/well in 2 mL of DMEM supplemented with 10% FBS, penicillin (100 U/mL), and streptomycin (100 μg/mL) and transfected 4 h after seeding using an X-tremeGENE HP transfection reagent, following the manufacturer’s instructions with a total of 2 μg of plasmid constructs (C-terminally tagged USP21 HiBiT and empty pCDNA3.1 vector). […] The breathable paper adhesive film was then replaced with a PCR adhesive film, and cells were heated at indicated temperatures in an Applied Biosystems VeritiPro thermal cycler for 3 min, followed by 3 min incubation at rt before the addition of LgBiT solution (200 nM LgBiT, 2% NP-40, protease inhibitors (Roche cOmplete, ethylenediaminetetraacetic acid (EDTA)-free Protease Inhibitor) in OptiMEM no phenol red (Gibco)) to lyse cells.

Aqueous solubility = assay type: physicochemical; conditions: PBS pH 6.5, pH 6.5, PBS pH 6.5
Procedure: Test compounds were applied as DMSO solutions or directly from powder. After the addition of the buffer, solutions were shaken at rt for 24 h. The undissolved material was removed by filtration or centrifugation. The compound dissolved in the supernatant was quantified by HPLC-UV or HPLC-MS/MS.

USP21 [2] = target: T2, USP21 (Homo sapiens, UniProt Q9UK80); experiment: SPR binding; conditions: single-cycle kinetics, 15 °C
T2 construct: made in house; host or cells: E. coli BL21(DE3)
Procedure: For binding analysis, a multi-cycle protocol was chosen with a contact time of 60 s, a flow rate of 30 μL/min, and a dissociation time of 200 s. Binding constants were calculated from the steady state using Biacore Insight Evaluation Software, assuming a 1:1 binding model as an average of four titrations. […] Immobilization levels were kept similar to the above. […] The running buffer of the duplicate measurements is 10 mM HEPES, pH 7.4, 150 mM NaCl, 0,005% surfactant P20 further supplemented with 2 mg/mL BSA and 1% DMSO. Affinity and kinetic analysis were performed using Biacore Insight Evaluation Software on double reference subtracted sensorgrams.

in vitro = in vitro ADME; conditions: human, Caco-2, pH 7.2
Procedure: Caco-2 cells [purchased from the German Collection of Microorganisms and Cell Cultures (DSMZ)] were seeded at a density of 4.5 × 10^4 cells/well on 24-well insert plates [0.4 μm pore size, 0.3 cm^2 (Costar)] and grown for 13–15 days in DMEM medium supplemented with 10% fetal calf serum (FCS), 1% GlutaMAX (100×, Gibco), 100 U/mL penicillin, 100 μg/mL streptomycin (Gibco), and 1% nonessential amino acids (100×, Thermo Fischer Scientific). […] The medium was changed every 2–3 days.
The bidirectional transport assay for the evaluation of Caco-2 permeability was undertaken in 24-well insert plates using a robotic system (Tecan). Before the assay was run, the culture medium was replaced by a transport medium (FCS-free HEPES carbonate transport buffer pH 7.2). For the assessment of monolayer integrity, the transepithelial electrical resistance (TEER) was measured. Only monolayers with a TEER of at least 400 Ω·cm^2 were used. Test compounds were pre-dissolved in DMSO and added either to the apical or basolateral compartment at a final concentration of 2 μM. The evaluation was performed in triplicate. […] The efflux ratio (ER) basolateral (B) to apical (A) was calculated by dividing Papp B–A by Papp A–B.

NF-κB activation = experiment: NF-κB reporter assay; assay type: cell-based; conditions: HEK293T cells, up to 10 μM
Procedure: Yang and colleagues reported that USP21 inhibition induces NF-κB activation by preventing deubiquitination of RIP1.[15] K63 ubiquitinated RIP1 is required for NF-κB activation, and thus USP21-mediated deubiquitination of RIP1 shuts down the NF-κB pathway.
Four hours after replating, cells were treated with compounds or DMSO (note: DMSO concentrations were kept consistent across all cells). Promega Dual-Luciferase Reporter Assay kit was then used to prepare samples for Firefly and Renilla signal measurement on a CLARIOstar microplate reader (BMG) 20 h after compound treatment. Relative luciferase units were calculated by normalizing the Firefly signal to the background Renilla signal, followed by normalization to DMSO controls of wild-type USP21.

log D measurement (HPLC) = assay type: physicochemical; conditions: reverse-phase HPLC, pH 7.5, pH 7.5, HPLC method; read-out: logD7.5
Procedure: log D values at pH 7.5 were recorded using an indirect method for determining hydrophobicity constants by reverse-phase HPLC. A series of compounds with well-known log D values were used for calibration. Test compounds were injected into the same HPLC system. The lipophilicity of compounds was then assessed by comparison to the calibration curve.

USP2 = target: T3, USP2 (Homo sapiens, UniProt O75604); experiment: hUSP2 Ub-rhodamine 110 assay; assay type: biochemical; conditions: arithmetic means of multiple measurements; read-out: IC50 hUSP2 Ub-Rhod
T3 construct: His tag
T3 sequence (O75604 259-605): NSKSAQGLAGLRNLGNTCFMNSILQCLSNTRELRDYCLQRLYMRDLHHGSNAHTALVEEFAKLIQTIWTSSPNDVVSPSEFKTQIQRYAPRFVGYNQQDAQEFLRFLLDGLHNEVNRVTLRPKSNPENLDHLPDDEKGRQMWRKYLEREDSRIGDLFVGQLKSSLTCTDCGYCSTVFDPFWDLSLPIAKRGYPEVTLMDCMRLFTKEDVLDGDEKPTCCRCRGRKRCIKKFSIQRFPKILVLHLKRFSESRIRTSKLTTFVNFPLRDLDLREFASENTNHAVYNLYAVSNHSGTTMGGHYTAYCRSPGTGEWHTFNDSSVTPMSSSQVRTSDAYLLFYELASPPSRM
Procedure: The final assay volume was 6 μL.

USP21 [3] = target: T4, USP21 (Homo sapiens, UniProt Q9UK80)
T4 sequence (Q9UK80 1-565): T1 sequence (Q9UK80 1-565)
Procedure: The final assay volume was 6 μL. […] First, 2 μL of 1 nM USP21 (or selectivity enzyme) solution was added to the compound plate and preincubated for 15–20 min at room temperature. […] The reaction was stopped by 50 mM citric acid in 25 mM HEPES, pH 7.5, containing 0.01% BSA. […] The USP21 and USP22 were measured with five flashes and USP2 and USP7 in fly mode.

USP21 [4] = target: T4, USP21; experiment: Thermal shift assay (TSA); assay type: binding; set-up: purchased Ubiquigent (DUBprofiler service); conditions: 100 μM compound
Procedure: Experiments were carried out with the QuantStudio7 Flex Real-Time PCR system (Thermo Fisher Scientific) in a 384-well plate format with 5 μL of reaction volume. Melting curves were obtained at an USP21 protein concentration of 3.8 μM and 5xSYPRO Orange (Invitrogen) using a buffer containing 20 mM Tris, pH 7.5; 150 mM NaCl; 10% glycerol; and 1.0 mM TCEP. […] For binding experiments, compounds were added from 10 mM stock solution to a final concentration of 100 μM. As a control, 1% DMSO was used. Scans were measured from 25 to 95 °C at a scanning rate of 4 °C/min. All TSA data were analyzed using a Genedata Assay Analyzer.

USP21 [5] = target: T4, USP21; remark: listed apart in the source
Procedure: To this end, we developed a USP21 activity assay that is based on the deubiquitination of a STING-derived peptide (a USP21-specific substrate[17],[18]) by purified recombinant human full-length USP21 using time-resolved fluorescence resonance energy transfer (TR-FRET) technology (referred to as a homogeneous time-resolved fluorescence (HTRF)-assay, for details see the Supporting Information).[39]
All substrate and enzyme solutions were diluted in an assay buffer. […] Incubation time was 15–20 min at room temperature. […] The stop solution (DUB inhibitor PR619, Abcam) was prepared in 25 mM HEPES, pH 7.5 (Alfa Aesar) containing 0.01% BSA and then left for 10 min at room temperature before filtering with a 0.2 μM PES Membrane (Thermo Fisher). The reaction was stopped with the addition of 2 μL of 200 μM PR619. […] The plates were measured on the ViewLux in screening or PHERAstar FSX in compound profiling. […] The number of flashes per well was set to 3. All of the experimental data were plotted using Genedata analysis. The Z′-factor and S/B of the assay were >0.7 and ∼2, respectively.

Row | SMILES | cellular thermal stabilization of USP21 (in words) [1] | solubility at 24 h (Aqueous solubility) [µM] | Kd (USP21 [2]) [µM] | Papp A→B at 2 h, 2 µM (in vitro; 2 μM, 2 h) [×10⁻⁶ cm/s] | efflux ratio at 2 h, 2 µM (in vitro; Papp B–A / Papp A–B, read-out: Caco-2 efflux ratio (ER)) | NF-κB activation (in words) (NF-κB activation) | chromatographic logD (log D measurement (HPLC)) | IC50 (USP2) [µM] | IC50 (USP21 [3]) [µM] | ΔTm at 100 µM (USP21 [4]) [°C] | IC50 (USP21 [5]) [µM]
1 | N#Cc1ccc(Cc2nnc(NC(=O)[C@@H](CO)NC(=O)C3(C(F)(F)F)CCCCC3)s2)cc1 [Compound 18, OC[C@@H](NC(=O)C1(CCCCC1)C(F)(F)F)C(=O)Nc2nnc(Cc3ccc(cc3)C#N)s2] | strong cellular target engagement | 91.2 (≈ 43.9 µg/mL) | 0.0058 | 1.4 | 14 | cellular activity was not observed | 2.5 | – | – | – | –
2 | O=C(CNC(=O)C1CCCC1)Nc1nnc(Cc2ccc([N+](=O)[O-])cc2)s1 [Compound 2, [O-][N+](=O)c1ccc(Cc2nnc(NC(=O)CNC(=O)C3CCCC3)s2)cc1] | – | – | – | – | – | – | 2.1 | > 25 | > 25 | 3.5 | > 25
